Data taken from article PMC4486471 (Nature communications, 2014).
Values belong to the compound of their own block, whether it stands above or below them.

Columns and labels:
[1] = system: rheumatoid arthritis model; settings: cited from earlier work
[2] = system: myeloma tumor; settings: cited from earlier work
[3] = biological target: T1, murine IRE1α (Mus musculus, UniProt Q9EQY0, N772Y); assay: biochemical; settings: IC50 IRE1α RNase activity, naphthol analogue series, average n=4 +/- s.d.
[4] = system: XBP1 mRNA splicing (IRE1α); assay: XBP1 mRNA splicing in RPMI 8226 plasmacytoma cells; type: cell-based, human
[5] = biological target: T2, yeast IRE1 (Saccharomyces cerevisiae, UniProt P32361, DEL869-892); assay: IRE1 RNase activity, real time fluorescence readout assay; type: biochemical; settings: RNase inhibition
T2 sequence (P32361 with tags, fused parts or gaps DEL869-892): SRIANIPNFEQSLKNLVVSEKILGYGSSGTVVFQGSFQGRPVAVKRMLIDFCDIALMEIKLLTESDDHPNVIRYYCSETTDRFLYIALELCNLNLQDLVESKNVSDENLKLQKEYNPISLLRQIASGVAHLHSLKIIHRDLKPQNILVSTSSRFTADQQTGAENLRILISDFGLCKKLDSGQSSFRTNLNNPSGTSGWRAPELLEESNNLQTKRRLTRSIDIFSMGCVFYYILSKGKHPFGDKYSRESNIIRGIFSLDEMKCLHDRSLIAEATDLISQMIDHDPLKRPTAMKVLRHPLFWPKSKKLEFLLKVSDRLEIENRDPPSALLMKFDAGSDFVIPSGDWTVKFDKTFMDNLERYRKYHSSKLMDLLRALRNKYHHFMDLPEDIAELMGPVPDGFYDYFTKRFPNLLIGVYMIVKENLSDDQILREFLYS

[6] = system: CD59 mRNA (RIDD target); assay: CD59; type: cell-based, human; settings: 10 μM
[7] = biological target: T3, murine IRE1α Lys907Ala (Mus musculus, UniProt Q9EQY0, K907A/N772Y); assay: Direct binding by micro-scale thermophoresis
T3 sequence (Q9EQY0 499-977 N772Y/K907A): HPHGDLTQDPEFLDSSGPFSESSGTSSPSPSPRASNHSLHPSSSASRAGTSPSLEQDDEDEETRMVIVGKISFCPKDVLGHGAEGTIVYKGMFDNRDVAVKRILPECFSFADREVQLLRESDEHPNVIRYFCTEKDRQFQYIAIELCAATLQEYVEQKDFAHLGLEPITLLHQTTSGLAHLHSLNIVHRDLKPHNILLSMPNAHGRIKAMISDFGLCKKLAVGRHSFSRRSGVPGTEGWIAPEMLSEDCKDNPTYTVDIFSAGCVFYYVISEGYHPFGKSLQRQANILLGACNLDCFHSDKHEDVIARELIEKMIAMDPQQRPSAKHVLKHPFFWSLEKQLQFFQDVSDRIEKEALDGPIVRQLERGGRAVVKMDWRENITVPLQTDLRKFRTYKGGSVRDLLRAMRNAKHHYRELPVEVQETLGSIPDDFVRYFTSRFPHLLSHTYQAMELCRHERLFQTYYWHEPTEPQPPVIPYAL

[8] = biological target: murine IRE1α Phe889Ala (Mus musculus, UniProt Q9EQY0, F889A/N772Y); assay: Direct binding by micro-scale thermophoresis; settings: Kd (avg), average
Sequence of murine IRE1α Phe889Ala (Q9EQY0 499-977 N772Y/F889A): as the sequence (Q9EQY0 499-977 N772Y/K907A) above, with F391A, A409K counted along it

[9] = biological target: T3, murine IRE1α Lys907Ala; assay: Gel based RNase cleavage assay with dual-hairpin RNA substrate; type: biochemical; settings: 100 μM IRE1α, 60 μM dual hairpin substrate
[10] = biological target: IRE1α auto-kinase activity (Mus musculus, UniProt Q9EQY0, N772Y); assay: IRE1α auto-kinase; type: biochemical, murine
Sequence of IRE1α auto-kinase activity (Q9EQY0 499-977 N772Y): as the sequence (Q9EQY0 499-977 N772Y/K907A) above, with A409K counted along it

[11] = biological target: murine IRE1α Asn906Leu (Mus musculus, UniProt Q9EQY0, N772Y/N906L); assay: Direct binding by micro-scale thermophoresis; settings: Kd (avg), average
Sequence of murine IRE1α Asn906Leu (Q9EQY0 499-977 N772Y/N906L): as the sequence (Q9EQY0 499-977 N772Y/K907A) above, with N408L, A409K counted along it

[12] = biological target: murine IRE1α Tyr892Ala (Mus musculus, UniProt Q9EQY0, N772Y/Y892A); assay: Direct binding by micro-scale thermophoresis; settings: Kd (avg), average
Sequence of murine IRE1α Tyr892Ala (Q9EQY0 499-977 N772Y/Y892A): as the sequence (Q9EQY0 499-977 N772Y/K907A) above, with Y394A, A409K counted along it

[13] = biological target: murine IRE1α His910Ala (Mus musculus, UniProt Q9EQY0, H910A/N772Y); assay: Direct binding by micro-scale thermophoresis; settings: Kd (avg), average
Sequence of murine IRE1α His910Ala (Q9EQY0 499-977 N772Y/H910A): as the sequence (Q9EQY0 499-977 N772Y/K907A) above, with A409K, H412A counted along it

[14] = biological target: T2, yeast IRE1; settings: cited from earlier work
[15] = biological target: murine IRE1α auto-kinase activity (Mus musculus, UniProt Q9EQY0, N772Y); assay: Auto-phosphorylation kinase assay with P32-γ-ATP; type: biochemical; settings: read-out: IC50 (avg) auto-kinase activity of murine IRE1α; 10 minute time point; n=2
Sequence of murine IRE1α auto-kinase activity (Q9EQY0 499-977 N772Y): as the sequence (Q9EQY0 499-977 N772Y/K907A) above, with A409K counted along it

[16] = biological target: T1, murine IRE1α; assay: Oligomerization status by velocity analytical ultracentrifugation; settings: ADP 500 μM, JAK inhibitor I 30 μM

T1 sequence (Q9EQY0 499-977 N772Y): as the sequence (Q9EQY0 499-977 N772Y/K907A) above, with A409K counted along it

- IC50 [3]: 0.39 µM
Compound: O=Cc1c(O)ccc2ccc(Br)cc12 [MKC3987, 7-Bromo-2-hydroxy-naphthalene-1-carbaldehyde]

- IC50 [3]: 5.7 µM
Compound: CN1CCN(C(=O)c2ccc(-c3ccc4ccc(O)c(C=O)c4c3)cc2)CC1 [MKC4027, 2-Hydroxy-7-[4-(4-methyl-piperazine-1-carbonyl)-phenyl]-naphthalene-1-carbaldehyde]

- EC50 ([4]; Homo sapiens, RPMI-8226, read-out: EC50 (avg) XBP1 splicing): 0.33 µM
- Resistance of yeast IRE1 relative to IRE1α [5]: ~ 100 fold
- Binding to IRE1α Lys907Ala [7]: abolished detectable binding
- Kd [8]: 10.9 µM
- Sensitivity of RNase activity to inhibitor [9]: insensitive
- IC50 [10]: > 10 µM
- Kd [11]: 8.9 µM
- Kd [12]: 10 µM
- Kd [13]: 5.3 µM
Compound: COCCOCCc1c(C)c2cc(OC)c(O)c(C=O)c2oc1=O [MKC9989, 7-Hydroxy-6-methoxy-3-(2-(2-methoxyethoxy)ethyl)-4-methyl-2-oxo-2H-chromene-8-carbaldehyde]
- Inhibition of basal and thapsigargin induced splicing of XBP1 mRNA ([4]; 10 μM compound, 1 μM thapsigargin, RPMI 8226): completely inhibited
- CD59 mRNA level ([6]; administered 2 hour post treatment with thapsigargin): moderately stabilized
- CD59 mRNA level ([6]; co-administered with thapsigargin relative to thapsigargin alone): markedly stabilized
- CD59 mRNA level ([6]; non-stressed cells): modestly increased

Further lines, the compound ahead of its results:

Compound: Cc1cc(=O)oc2c(C=O)c(O)ccc12 [4μ8C]
- XBP1s, inflammatory cytokines and inflammation [1]: effective in suppressing

Compound: CN1CCN(C(=O)c2ccc(-c3ccc4c(C=O)c(O)ccc4c3)s2)CC1 [MKC3946, 2-Hydroxy-6-[5-(4-methyl-piperazine-1-carbonyl)-thiophen-2-yl]-naphthalene-1-carbaldehyde]
- Myeloma tumor growth [2]: reduced myeloma tumor growth
- Splicing of XBP1 mRNA in tissues and tumors [2]: inhibited the splicing of XBP1 mRNA in tissues and tumors
- Tolerability in vivo [2]: readily tolerated with high exposure

Compound: JAK inhibitor I
- Effect on dimerization/oligomerization of yeast IRE1 and its RNase activity [14]: promoted
- IC50 [15]: 1.1 µM
- Effect on concentration dependent oligomerization of IRE1α [16]: enhanced
